Earlier results on one sequence are cited in patent US8048906B2, “Optically pure and enriched isomers of chelating ligands and contrast agents” (Catalyst Medical, priority 2003, dated 2011).

pKd: −log10 of the molar value.

For the data set the following is noted: binds to HA; peptide isolated from a random 12-mer phage peptide library (Mummert et al., J. Exp. Med. 2000).

For GAHWQFNALTVR, the pKd is about 6.00.

By pKd is commonly meant the Kd on a negative log10 scale, so that one unit is a factor of ten.
